Laboratory results: ChEMBL document CHEMBL5338797, “Rational Design of Covalent Kinase Inhibitors by an Integrated Computational Workflow (Kin-Cov)” (J Med Chem, 2023)
Calls of active or inactive are those of the source. The rule behind the calls is not given here.

Tests used:
U2OS [1] = assay: Induction of apoptosis in human U2OS cells assessed as increase in cleaved-caspase 3 level at 100 uM measured for 4 hrs; type: functional, cell-based
[2] = target: T1, Mitogen-activated protein kinase kinase kinase 20 (Homo sapiens, UniProt Q9NYL2); assay: Inhibition of recombinant ZAK (unknown origin) using ATP as substrate preincubated for 60 mins followed by substrate addition and measured after 40 mins by fluorescence based envision multilabel reader method
Target sequence in this assay (Q9NYL2 whole entry): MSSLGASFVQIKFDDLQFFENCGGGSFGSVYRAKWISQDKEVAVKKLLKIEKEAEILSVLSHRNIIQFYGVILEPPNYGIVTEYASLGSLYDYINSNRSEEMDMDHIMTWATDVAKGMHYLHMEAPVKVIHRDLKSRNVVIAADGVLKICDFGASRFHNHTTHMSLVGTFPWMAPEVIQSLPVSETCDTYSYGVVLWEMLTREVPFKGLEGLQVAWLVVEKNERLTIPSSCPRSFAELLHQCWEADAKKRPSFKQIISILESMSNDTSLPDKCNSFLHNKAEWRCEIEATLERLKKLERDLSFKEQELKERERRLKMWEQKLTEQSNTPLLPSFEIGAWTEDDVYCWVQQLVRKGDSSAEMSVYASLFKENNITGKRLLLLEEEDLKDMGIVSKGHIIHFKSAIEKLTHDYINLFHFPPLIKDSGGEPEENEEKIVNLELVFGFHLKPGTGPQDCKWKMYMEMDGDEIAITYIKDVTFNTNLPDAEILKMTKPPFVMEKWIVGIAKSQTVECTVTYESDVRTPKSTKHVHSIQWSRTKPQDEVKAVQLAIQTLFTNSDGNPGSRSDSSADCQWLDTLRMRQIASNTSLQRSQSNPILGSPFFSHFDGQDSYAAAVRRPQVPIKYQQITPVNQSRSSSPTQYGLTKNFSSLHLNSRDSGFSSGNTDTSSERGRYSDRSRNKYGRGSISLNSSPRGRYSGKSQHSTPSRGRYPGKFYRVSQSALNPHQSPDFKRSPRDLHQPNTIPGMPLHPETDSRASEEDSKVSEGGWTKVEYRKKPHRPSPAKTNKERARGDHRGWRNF

[3] = target: Serine/threonine-protein kinase B-raf (Homo sapiens, UniProt P15056, V600E); assay: Inhibition of B-RAF V600E mutant (unknown origin) incubated for 1 hr in presence of ATP by envision multilabel reader analysis
[4] = target: MAP kinase p38 (Homo sapiens) (UniProt O15264+Q15759+Q16539+P53778); assay: Inhibition of p38 phosphorylation in human U2OS cells measured for 1 hr by Western blot analysis; type: cell-based; settings: dose <= 10.0 µM
[5] = target: T1, Mitogen-activated protein kinase kinase kinase 20; assay: Inhibition of ZAKapha (unknown origin) at 10 uM measured after 1 hr by Western blot analysis
Target sequence in this assay (Q9NYL2 2-800 limits assumed): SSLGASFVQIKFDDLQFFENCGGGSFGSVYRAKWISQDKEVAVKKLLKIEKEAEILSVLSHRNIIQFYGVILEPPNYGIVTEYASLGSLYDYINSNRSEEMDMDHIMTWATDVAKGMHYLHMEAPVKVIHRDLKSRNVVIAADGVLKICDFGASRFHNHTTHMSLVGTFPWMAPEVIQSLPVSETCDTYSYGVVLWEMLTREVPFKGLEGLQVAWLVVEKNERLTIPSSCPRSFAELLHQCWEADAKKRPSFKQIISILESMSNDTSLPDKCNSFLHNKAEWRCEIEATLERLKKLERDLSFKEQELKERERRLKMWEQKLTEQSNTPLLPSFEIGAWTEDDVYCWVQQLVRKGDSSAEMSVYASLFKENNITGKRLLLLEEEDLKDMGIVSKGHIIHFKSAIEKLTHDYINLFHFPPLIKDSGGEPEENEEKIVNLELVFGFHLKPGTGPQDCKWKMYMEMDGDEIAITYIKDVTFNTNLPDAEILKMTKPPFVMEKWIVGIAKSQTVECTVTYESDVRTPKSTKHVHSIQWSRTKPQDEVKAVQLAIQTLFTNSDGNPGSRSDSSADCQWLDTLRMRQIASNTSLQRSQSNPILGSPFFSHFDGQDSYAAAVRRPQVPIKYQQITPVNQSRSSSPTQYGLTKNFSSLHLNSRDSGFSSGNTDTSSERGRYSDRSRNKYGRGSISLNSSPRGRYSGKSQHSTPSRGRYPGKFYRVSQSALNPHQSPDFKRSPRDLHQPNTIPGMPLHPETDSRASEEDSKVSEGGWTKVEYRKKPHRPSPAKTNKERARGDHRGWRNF

LIM domain kinase 1 [6] = target: T2, LIM domain kinase 1 (Homo sapiens, UniProt P53667); assay: Inhibition of full length human LIMK1 by KINOMEscan assay
Target sequence in this assay (P53667 whole entry, the tested form may be a part): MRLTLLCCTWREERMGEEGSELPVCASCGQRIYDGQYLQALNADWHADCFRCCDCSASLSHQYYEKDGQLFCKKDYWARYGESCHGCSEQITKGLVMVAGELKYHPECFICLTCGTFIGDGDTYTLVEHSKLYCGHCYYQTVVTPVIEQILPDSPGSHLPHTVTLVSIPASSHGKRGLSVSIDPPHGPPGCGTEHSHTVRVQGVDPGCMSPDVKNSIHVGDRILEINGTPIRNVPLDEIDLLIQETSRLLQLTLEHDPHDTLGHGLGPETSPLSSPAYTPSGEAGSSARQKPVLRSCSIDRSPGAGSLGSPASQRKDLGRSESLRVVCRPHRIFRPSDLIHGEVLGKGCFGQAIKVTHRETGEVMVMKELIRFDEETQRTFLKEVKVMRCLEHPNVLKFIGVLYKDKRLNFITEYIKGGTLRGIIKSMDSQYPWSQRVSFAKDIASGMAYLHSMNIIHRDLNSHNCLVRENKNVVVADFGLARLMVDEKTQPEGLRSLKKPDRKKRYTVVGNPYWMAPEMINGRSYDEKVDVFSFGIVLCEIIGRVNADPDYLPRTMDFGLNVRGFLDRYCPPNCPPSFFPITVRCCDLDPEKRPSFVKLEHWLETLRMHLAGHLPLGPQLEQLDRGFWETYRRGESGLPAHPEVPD

U2OS [7] = assay: Induction of apoptosis in human U2OS cells assessed as reduction in cell death at 10 uM measured after 24 hrs in presence of doxorubicin; type: functional, cell-based
U2OS [8] = assay: Induction of apoptosis in ZAK knockout human U2OS cells assessed as increase in cleaved-caspase 3 level at 10 uM measured for 4 hrs; type: functional, cell-based
[9] = target: T1, Mitogen-activated protein kinase kinase kinase 20; assay: Inhibition of partial length human ZAK at 1000 nM by KINOMEscan assay relative to control; values are per cent of control
Target sequence in this assay (Q9NYL2 2-800 limits assumed): as the sequence (Q9NYL2 2-800 limits assumed) above

[10] = target: T1, Mitogen-activated protein kinase kinase kinase 20; assay: Inhibition of ZAKbeta (unknown origin) at 10 uM measured after 1 hr by Western blot analysis
Target sequence in this assay (Q9NYL2 2-800 limits assumed): as above

LIM domain kinase 1 [11] = target: T2, LIM domain kinase 1; assay: Inhibition of full length human LIMK1 at 1000 nM by KINOMEscan assay relative to control; values are per cent of control
Target sequence in this assay (P53667 whole entry, looked up, the tested form may be a part): as the sequence (P53667 whole entry, the tested form may be a part) above

[12] = target: T3, Tyrosine-protein kinase Lck (Homo sapiens, UniProt P06239); assay: Inhibition of partial length human LCK by KINOMEscan assay
Target sequence in this assay (P06239 whole entry): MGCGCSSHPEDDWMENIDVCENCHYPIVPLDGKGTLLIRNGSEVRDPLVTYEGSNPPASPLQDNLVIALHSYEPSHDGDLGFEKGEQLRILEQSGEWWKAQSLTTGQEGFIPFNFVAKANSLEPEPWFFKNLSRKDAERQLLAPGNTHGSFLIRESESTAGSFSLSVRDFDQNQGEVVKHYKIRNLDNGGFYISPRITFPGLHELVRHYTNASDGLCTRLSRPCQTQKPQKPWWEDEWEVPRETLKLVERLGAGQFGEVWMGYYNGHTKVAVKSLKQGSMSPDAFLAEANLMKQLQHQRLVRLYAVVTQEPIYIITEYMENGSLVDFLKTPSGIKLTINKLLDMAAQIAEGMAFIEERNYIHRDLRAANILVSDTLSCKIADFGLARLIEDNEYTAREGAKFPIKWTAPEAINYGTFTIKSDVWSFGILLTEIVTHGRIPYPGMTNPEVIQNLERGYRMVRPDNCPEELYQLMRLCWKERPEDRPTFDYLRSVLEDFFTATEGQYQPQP

U2OS [13] = assay: Induction of apoptosis in ZAK knockout human U2OS cells assessed as reduction in cell death at 10 uM measured after 24 hrs in presence of doxorubicin; type: functional, cell-based
[14] = target: T1, Mitogen-activated protein kinase kinase kinase 20; assay: Inhibition of partial length human ZAK by KINOMEscan assay
Target sequence in this assay (Q9NYL2 whole entry): as the sequence (Q9NYL2 whole entry) above

[15] = target: T3, Tyrosine-protein kinase Lck; assay: Inhibition of partial length human LCK at 1000 nM by KINOMEscan assay relative to control; values are per cent of control
Target sequence in this assay (P06239 2-509 limits assumed): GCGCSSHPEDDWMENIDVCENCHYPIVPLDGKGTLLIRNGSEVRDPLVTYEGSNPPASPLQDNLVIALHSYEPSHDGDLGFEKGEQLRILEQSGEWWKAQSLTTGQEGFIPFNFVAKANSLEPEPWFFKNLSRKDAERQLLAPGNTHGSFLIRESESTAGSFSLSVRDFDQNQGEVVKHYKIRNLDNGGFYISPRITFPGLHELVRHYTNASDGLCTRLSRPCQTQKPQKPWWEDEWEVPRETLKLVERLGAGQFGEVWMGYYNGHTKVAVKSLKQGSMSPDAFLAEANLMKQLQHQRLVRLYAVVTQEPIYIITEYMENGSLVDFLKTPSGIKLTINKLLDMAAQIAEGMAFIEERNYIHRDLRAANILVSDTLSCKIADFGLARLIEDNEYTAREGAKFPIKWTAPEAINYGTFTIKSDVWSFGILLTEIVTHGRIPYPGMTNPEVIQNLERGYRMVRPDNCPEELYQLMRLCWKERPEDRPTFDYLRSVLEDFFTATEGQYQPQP

LIM domain kinase 2 [16] = target: T4, LIM domain kinase 2 (Homo sapiens, UniProt P53671); assay: Inhibition of full length human LIMK2 at 1000 nM by KINOMEscan assay relative to control; values are per cent of control
Target sequence in this assay (P53671 whole entry, looked up, the tested form may be a part): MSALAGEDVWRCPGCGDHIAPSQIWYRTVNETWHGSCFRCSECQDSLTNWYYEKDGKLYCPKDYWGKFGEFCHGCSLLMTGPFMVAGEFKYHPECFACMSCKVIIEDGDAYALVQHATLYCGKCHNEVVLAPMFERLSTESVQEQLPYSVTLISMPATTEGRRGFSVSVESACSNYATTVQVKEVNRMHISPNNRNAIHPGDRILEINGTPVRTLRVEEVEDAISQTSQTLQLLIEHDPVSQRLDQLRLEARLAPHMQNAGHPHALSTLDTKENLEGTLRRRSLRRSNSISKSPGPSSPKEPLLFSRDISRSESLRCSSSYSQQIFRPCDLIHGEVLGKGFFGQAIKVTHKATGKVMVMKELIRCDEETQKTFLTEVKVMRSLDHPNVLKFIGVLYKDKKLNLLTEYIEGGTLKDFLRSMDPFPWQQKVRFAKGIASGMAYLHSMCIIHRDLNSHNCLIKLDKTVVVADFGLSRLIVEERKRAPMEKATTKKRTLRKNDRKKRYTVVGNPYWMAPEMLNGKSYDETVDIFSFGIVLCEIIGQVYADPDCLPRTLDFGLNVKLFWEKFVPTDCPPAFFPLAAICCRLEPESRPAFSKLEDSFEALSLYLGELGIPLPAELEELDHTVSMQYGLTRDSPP

LIM domain kinase 2 [17] = target: T4, LIM domain kinase 2; assay: Inhibition of full length human LIMK2 by KINOMEscan assay
Target sequence in this assay (P53671 whole entry, the tested form may be a part): as the sequence (P53671 whole entry, looked up, the tested form may be a part) above

Chain of Serine/threonine-protein kinase B-raf (P15056 2-766 V600E limits assumed): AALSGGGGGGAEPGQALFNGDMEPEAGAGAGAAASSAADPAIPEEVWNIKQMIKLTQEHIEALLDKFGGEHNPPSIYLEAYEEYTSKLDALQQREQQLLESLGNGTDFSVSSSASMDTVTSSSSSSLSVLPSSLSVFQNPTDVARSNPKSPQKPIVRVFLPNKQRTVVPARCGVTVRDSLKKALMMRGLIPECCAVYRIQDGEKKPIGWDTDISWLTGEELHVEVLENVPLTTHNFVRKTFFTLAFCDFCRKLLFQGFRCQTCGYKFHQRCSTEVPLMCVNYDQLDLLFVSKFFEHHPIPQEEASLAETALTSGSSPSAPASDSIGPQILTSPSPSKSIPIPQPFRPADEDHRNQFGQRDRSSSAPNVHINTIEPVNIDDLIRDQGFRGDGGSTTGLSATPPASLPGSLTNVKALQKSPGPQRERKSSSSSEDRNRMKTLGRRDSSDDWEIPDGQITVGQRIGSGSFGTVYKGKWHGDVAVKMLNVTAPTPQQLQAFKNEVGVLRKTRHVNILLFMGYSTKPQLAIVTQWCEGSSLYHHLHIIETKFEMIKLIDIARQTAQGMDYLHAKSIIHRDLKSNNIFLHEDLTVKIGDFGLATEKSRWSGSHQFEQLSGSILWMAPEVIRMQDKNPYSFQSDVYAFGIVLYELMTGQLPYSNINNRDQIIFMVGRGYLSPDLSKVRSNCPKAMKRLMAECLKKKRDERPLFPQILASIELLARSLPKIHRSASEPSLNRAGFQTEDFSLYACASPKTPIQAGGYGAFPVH

Compound: COc1cccc2c1C(=O)c1c(O)c3c(c(O)c1C2=O)C[C@@](O)(C(=O)CO)C[C@@H]3O[C@H]1C[C@H](N)[C@H](O)[C@H](C)O1
- Activity (U2OS [1]): Active

Compound: C=CC(=O)NCCCOc1n[nH]c2ncc(-c3cn(-c4c(F)ccc(NS(=O)(=O)c5cccc(-c6ccccc6)c5)c4F)nn3)cc12
- IC50 [2]: 9.1 nM

Compound: C=CC(=O)N1CCC(Oc2n[nH]c3ncc(-c4cn(-c5c(F)ccc(NS(=O)(=O)c6ccccc6)c5F)nn4)cc23)C1 (configuration not stated)
- IC50 [2]: 10.1 nM
- IC50 [3]: 247 nM

Compound: C=CC(=O)N1CC[C@@H](Oc2n[nH]c3ncc(-c4cn(-c5c(F)ccc(NS(=O)(=O)c6cccc(-c7ccccc7)c6)c5F)nn4)cc23)C1
- IC50 [2]: 12.3 nM

Compound: C=CC(=O)N1CCCC(NC(=O)CCCCCCOc2n[nH]c3ncc(-c4cn(-c5c(F)ccc(NS(=O)(=O)c6cccc(-c7ccccc7)c6)c5F)nn4)cc23)C1 (configuration not stated)
- IC50 [2]: 34.7 nM

Compound: C=CC(=O)N1CC[C@H](Oc2n[nH]c3ncc(-c4cn(-c5c(F)ccc(NS(=O)(=O)c6cccc(-c7ccccc7)c6)c5F)nn4)cc23)C1
- IC50 [2]: 9.9 nM

Compound: C=CC(=O)NCCCCCCN1CCC(COc2n[nH]c3ncc(-c4cn(-c5c(F)ccc(NS(=O)(=O)c6cccc(-c7ccccc7)c6)c5F)nn4)cc23)CC1
- IC50 [2]: 10.1 nM

Compound: COc1ccc(C[C@H]2NC[C@H](O)[C@H]2OC(C)=O)cc1
- inhibition [4]: Dose-Dependent Effect

Compound: COc1n[nH]c2ncc(-c3cn(-c4c(F)ccc(NS(=O)(=O)c5cccc(-c6ccccc6)c5)c4F)nn3)cc12
- IC50 [2]: 8.8 nM
- IC50 [3]: > 1000 nM

Compound: C=CC(=O)N1CCC(Oc2n[nH]c3ncc(-c4cn(-c5c(F)ccc(NS(=O)(=O)c6cccc(-c7ccccc7)c6)c5F)nn4)cc23)C1 (configuration not stated)
- inhibition [5]: Active
- IC50 (LIM domain kinase 1 [6]): 12.3 nM
- Activity (U2OS [7]): Active
- Activity (U2OS [8]): inactive
- residual activity [9]: -4%
- IC50 [2]: 11.5 nM
- IC50 [3]: > 1000 nM
- inhibition [10]: Active
- residual activity (LIM domain kinase 1 [11]): 9%
- IC50 [12]: 204 nM
- Activity (U2OS [13]): inactive
- IC50 [14]: 11.5 nM
- residual activity [15]: 8%
- residual activity (LIM domain kinase 2 [16]): 6%
- IC50 (LIM domain kinase 2 [17]): 21.3 nM
- inhibition [4]: Dose-Dependent Effect
